31 compounds from PubChem BioAssay (NCI) can be followed below.

Molecules are shown by their SMILES.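 Briefly, cells in 96-well plates were exposed to five compound concentrations for 48 h, and endpoints were estimated by linear interpolation. GI50: concentration for 50% inhibition of growth. TGI denotes the concentration required for complete inhibition of growth.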

The subject of the assay is MDA-MB-468 breast. Description: NCI-60 cell line screen, 48 h.
As for `O=C1OCC2=C1C(c1cccc(Cl)c1)c1cc3c(cc1N2CCO)OCCO3` (configuration not stated), the GI50 is 26.5 nM and the TGI turned out to be 0.516 µM.
On the same counts, the results for `CC1=C(c2cccc(O)c2)[C@H](c2ccc(OCCN3CC(CF)C3)cc2)Oc2ccc(O)cc21` are 2400 nM and 6.24 µM.
As to `COc1ccc(C/C(C)=C(/c2ccc(OCCN3CCCCC3)cc2)c2ccc(OC(=O)NCc3ccccc3)cc2)cc1`, the GI50 is 400 nM and the TGI turned out to be 0.789 µM.
On to `COc1ccc2c(c1)c(CC(=O)[Se]C)c(C)n2C(=O)c1ccc(Cl)cc1`, for which the GI50 is above 419 nM and the TGI was above 0.681 µM.
On to `[Cl][Sn]([c]1ccccc1)([c]1ccccc1)[c]1ccccc1`, for which the GI50 was 137 nM and the TGI came to 0.326 µM.
In the case of `CN(C)CCN1C(=O)c2c(c3c4ccccc4n4c3c3c2c2ccccc2n3C2CC(O)C(O)C4(C)O2)C1=O` (configuration not stated), the GI50 is 1520 nM and the TGI was found to be 5.65 µM.
Regarding `Cc1c(Cl)cccc1C(=O)Nc1nc2c(s1)CN(C(=O)c1ccc(C(F)(F)F)cc1)CC2`, the GI50 was 36.5 nM and the TGI is above 35.7 µM.
As for `Cc1cc([N+](=O)[O-])c(NS(=O)(=O)c2cccc(C(=O)O)c2)cc1-c1cccnc1`, the GI50 is above 100000 nM and the TGI is above 100 µM.
On the same counts, the results for `O=C(Nc1ccc(Cl)cc1)Nc1nc2ccc([N+](=O)[O-])cc2s1` are 862 nM and 2.38 µM.
Turning to `COc1ccc(CCN2CC=Cn3c2nc2ccccc2c3=O)cc1`, the GI50 was 81.6 nM and the TGI was found to be 11.8 µM.
On the same counts, the results for `O=C(Nc1ccc(Br)cc1F)c1cc(I)ccc1O` are 2170 nM and 6.22 µM.
For the compound `Nc1ncnc2c1N=C(c1ccc3c(c1)OCO3)CC(c1ccc([N+](=O)[O-])cc1)N2` (configuration not stated), the GI50 was 25200 nM and the TGI was 60.4 µM.
With `Cc1ccccc1OCC(O)CN1CCN(c2ccc(Cl)cc2)CC1` (configuration not stated), the GI50 was 17400 nM and the TGI came out at 35.4 µM.
Regarding `C#CC#CC#CC#CC#CC#CC#CC#CCC1OCC(COC(=O)O[C@@H](C(=O)O[C@H]2C[C@@]3(O)[C@@H](OC(=O)c4ccccc4)[C@@H]4[C@]5(OC(C)=O)CO[C@@H]5C[C@H](O)[C@@]4(C)C(=O)[C@H](OC(C)=O)C(=C2C)C3(C)C)[C@@H](NC(=O)c2ccccc2)c2ccccc2)O1` (some centres not stated), the GI50 is 67 nM and the TGI stood at 0.423 µM.
The corresponding values for `Cc1cc(F)ccc1S(=O)(=O)Nc1cc(-c2c(O)ccc3ccccc23)c(O)c2ccccc12` are 1650 nM and 3.7 µM.
On to `Cc1ccc(S(=O)(=O)c2c(COC(=O)c3cccc(C)c3)c(-c3ccccc3)nn2C)cc1`, for which the GI50 was above 100000 nM and the TGI was above 100 µM.
Regarding `C=C(C)[C@@H]1CC[C@]2(C(=O)N[C@H](CO)Cc3ccccc3)CC[C@]3(C)[C@H](CC[C@@H]4[C@@]5(C)CCCNC(C)(C)[C@@H]5CC[C@]43C)[C@@H]12`, the GI50 was 1520 nM and the TGI is 3.03 µM.
The corresponding values for `CN1CCN(C(=O)C(C)(C)c2ccc(C(=O)Nc3cn4cc(-c5ccncc5)ccc4n3)cc2)CC1` are 162 nM and 1.18 µM.
Consider `Cc1cc(NC(=O)NC(=O)c2ccccc2NC(=O)C(C)N)ccc1Oc1ncc(Br)cn1` (configuration not stated), for which the GI50 was below 10 nM and the TGI was 28.5 µM.
The corresponding values for `O=C1C(Nc2ccc(Cl)cc2)=C(I)C(=O)c2ncccc21` are 1510 nM and 3.82 µM.
On the same counts, the results for `O=C(N/N=C/C=C/c1ccc([N+](=O)[O-])o1)c1cc2ccccc2cc1O` are 1360 nM and 3.22 µM.
On the same counts, the results for `CC1=C(C(=O)Nc2ccc3n[nH]c(C)c3c2)C(c2ccc(C(F)(F)F)cc2)CC(=O)N1` (configuration not stated) are 7090 nM and above 25 µM.
Turning to `Cc1cc(NCCCN(C)C)c2ccc3c(ccc4c(NCCCN(C)C)cc(C)nc43)c2n1`, the GI50 is 153 nM and the TGI was 0.312 µM.
For the compound `O=C(Nc1cccc(-n2cc(-c3ccncc3)c(-c3ccc(Cl)c(O)c3)n2)c1)Nc1cc(C(F)(F)F)cc(C(F)(F)F)c1`, the GI50 was 264 nM and the TGI is 2.65 µM.
`O=C1c2c(c3c4cc(Br)ccc4[nH]c3c3ccc4ccccc4c23)C(=O)N1CCN1CCNCC1`: the GI50 was 1800 nM and the TGI was determined as 4.48 µM.
`COc1cccc(-c2c[nH]c3c(N/N=C/c4ccncc4)ncnc23)c1`: the GI50 is 848 nM and the TGI was found to be 3.89 µM.
The corresponding values for `COc1ccc2c(c1)NC1=C(C(=O)OC1)C2c1cc(OC)c2c(c1)OCO2` (configuration not stated) are below 15.4 nM and 0.061 µM.
The corresponding values for `Cn1ncnc1[C@H]1c2n[nH]c(=O)c3cc(F)cc(c23)N[C@@H]1c1ccc(F)cc1` are 1420 nM and above 100 µM.
Regarding `CCNCCCn1c2c(c3ccc(Cl)cc3c1=O)C(=O)c1cc(OC)cnc1-2`, the GI50 was 249 nM and the TGI was determined as 4.3 µM.
The corresponding values for `Cc1[nH]c2ccccc2c1CCCO` are above 100000 nM and above 100 µM.
On the same counts, the results for `COc1cc(C(=O)c2c(-c3ccccc3)oc3c(OC)cccc23)cc(OC)c1OC` are 83.9 nM and 11.1 µM.
